We go through 15 molecules from US20250084056A1, “SUBSTITUTED OXOISOINDOLINYL PIPERIDINE-2,6-DIONE COMPOUNDS” (BRISTOL-MYERS SQUIBB COMPANY, priority 2023, published 2025).

What all share (assay type): cell-based
One assay has as its system Phospho-Rb (Ser807/811). The assay is described as follows: Phospho-Retinoblastoma (pRB) Cellular Assay. The following applies: Homo sapiens, OVCAR-3, NIH OVCAR3 cells, 24 hours; for IC50: concentration giving 50% response; for Emax: maximum response, reference compound at 10 μM = 100%, read-out: pRB Ymax. Put shortly:
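OVCAR3 cells seeded overnight, then dosed with serial dilutions for 24 h at 37° C. Lysed with kit mix plus phosphatase inhibitor, ≥4 h at room temperature, read on EnVision; 100% response set by reference compound at 10 μM, giving IC50 and Ymax.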

The target in a further assay is GSPT1 (Homo sapiens, UniProt P15170+Q96SW2). Put plainly: GSPT1 Cellular Degradation Assay (DF15-GSPT1-ePL). Further details: expressed in transfected cells. The following applies: DF15-GSPT1-ePL cells, 20 hours. Put shortly: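 Human DF15 cells co-expressing a GSPT1–ePL fusion were treated with compound in RPMI 1640/10% FBS for 20 h at 37 °C. GSPT1 level was read by enzyme-fragment-complementation luminescence after 60 min with detection reagent. The reference degrader at […] defined 75% response; DC50 and Dmax were reported.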
Sequence of GSPT1 (P15170 whole entry, the tested form may be a part): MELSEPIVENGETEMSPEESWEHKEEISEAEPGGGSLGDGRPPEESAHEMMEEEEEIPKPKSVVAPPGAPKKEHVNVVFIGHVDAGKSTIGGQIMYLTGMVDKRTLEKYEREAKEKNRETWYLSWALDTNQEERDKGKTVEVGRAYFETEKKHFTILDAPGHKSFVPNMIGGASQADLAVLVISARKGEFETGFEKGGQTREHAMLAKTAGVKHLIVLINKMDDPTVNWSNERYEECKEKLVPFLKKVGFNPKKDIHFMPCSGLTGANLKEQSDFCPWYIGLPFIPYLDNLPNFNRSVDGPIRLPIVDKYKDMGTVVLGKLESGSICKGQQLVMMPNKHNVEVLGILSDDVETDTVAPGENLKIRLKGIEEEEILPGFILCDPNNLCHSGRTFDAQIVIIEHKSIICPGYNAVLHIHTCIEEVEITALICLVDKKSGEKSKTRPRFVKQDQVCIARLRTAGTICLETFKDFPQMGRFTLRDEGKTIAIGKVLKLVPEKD
Sequence of GSPT1 (Q96SW2 whole entry, the tested form may be a part): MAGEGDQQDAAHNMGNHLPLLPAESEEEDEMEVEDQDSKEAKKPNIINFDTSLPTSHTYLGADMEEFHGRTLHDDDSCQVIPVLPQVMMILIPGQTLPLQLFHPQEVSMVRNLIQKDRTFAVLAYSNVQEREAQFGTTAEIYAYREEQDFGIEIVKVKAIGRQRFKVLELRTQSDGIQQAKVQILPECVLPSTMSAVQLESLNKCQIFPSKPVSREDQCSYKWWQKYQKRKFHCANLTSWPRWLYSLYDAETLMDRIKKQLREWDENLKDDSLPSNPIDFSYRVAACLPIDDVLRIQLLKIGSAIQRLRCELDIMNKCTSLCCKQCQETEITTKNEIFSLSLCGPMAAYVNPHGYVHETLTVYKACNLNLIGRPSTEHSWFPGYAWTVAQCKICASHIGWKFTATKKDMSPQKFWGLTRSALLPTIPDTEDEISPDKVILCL
Sequence of GSPT1 (Q16531 whole entry partner, the tested form may be a part): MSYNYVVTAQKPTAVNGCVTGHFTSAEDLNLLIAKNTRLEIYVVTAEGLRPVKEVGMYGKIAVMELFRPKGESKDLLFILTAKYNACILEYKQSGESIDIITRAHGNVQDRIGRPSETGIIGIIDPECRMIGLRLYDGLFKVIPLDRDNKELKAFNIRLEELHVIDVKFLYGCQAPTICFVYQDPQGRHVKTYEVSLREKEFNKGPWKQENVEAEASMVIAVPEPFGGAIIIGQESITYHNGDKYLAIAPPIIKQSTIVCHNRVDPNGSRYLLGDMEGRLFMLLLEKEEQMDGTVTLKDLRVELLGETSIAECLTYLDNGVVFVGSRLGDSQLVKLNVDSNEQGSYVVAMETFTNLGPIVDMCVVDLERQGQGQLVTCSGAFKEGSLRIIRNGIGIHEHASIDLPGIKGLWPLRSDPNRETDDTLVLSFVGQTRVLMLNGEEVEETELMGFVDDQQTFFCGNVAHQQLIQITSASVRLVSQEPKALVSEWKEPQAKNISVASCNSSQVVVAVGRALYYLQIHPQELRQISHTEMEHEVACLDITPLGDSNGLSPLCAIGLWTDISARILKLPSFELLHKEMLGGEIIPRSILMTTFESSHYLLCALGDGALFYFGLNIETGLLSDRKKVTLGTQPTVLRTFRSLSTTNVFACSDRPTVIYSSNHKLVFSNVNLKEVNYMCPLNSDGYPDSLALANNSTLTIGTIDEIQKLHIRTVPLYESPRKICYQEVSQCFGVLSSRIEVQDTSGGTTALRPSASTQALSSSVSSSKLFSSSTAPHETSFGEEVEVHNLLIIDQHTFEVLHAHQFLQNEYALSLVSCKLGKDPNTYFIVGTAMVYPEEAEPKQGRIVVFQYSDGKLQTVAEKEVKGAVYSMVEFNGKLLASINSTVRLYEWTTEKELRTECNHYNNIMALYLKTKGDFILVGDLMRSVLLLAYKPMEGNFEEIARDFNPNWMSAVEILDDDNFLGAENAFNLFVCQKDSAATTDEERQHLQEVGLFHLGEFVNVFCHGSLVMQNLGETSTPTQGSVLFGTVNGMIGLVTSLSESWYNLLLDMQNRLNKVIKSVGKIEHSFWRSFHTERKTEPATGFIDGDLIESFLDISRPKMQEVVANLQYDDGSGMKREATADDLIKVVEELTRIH

The next assay deals with Cyclin E1 (Homo sapiens, UniProt P24864+Q96SW2). Put plainly: Cyclin E1 Cellular Degradation Assay (MSD). Also noted: endogenous in cells; host or cells: OVCAR3. The note with it: for DC50 / Dmax: Cyclin E1 cellular degradation; for Dmax: maximum degradation; for Ratio of GSPT1 DC50/Cyclin E1 DC50: selectivity for degradation of Cyclin E1 over GSPT1. In a few lines: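 OVCAR3 cells treated with compound for 24 h at 37 °C, lysed, and cyclin E1 measured by MSD sandwich immunoassay (rabbit capture, mouse detection anti-CCNE1). Reference degrader at […] defined 110% response; DC50 and Dmax derived from response.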
Sequence of Cyclin E1 (P24864 whole entry): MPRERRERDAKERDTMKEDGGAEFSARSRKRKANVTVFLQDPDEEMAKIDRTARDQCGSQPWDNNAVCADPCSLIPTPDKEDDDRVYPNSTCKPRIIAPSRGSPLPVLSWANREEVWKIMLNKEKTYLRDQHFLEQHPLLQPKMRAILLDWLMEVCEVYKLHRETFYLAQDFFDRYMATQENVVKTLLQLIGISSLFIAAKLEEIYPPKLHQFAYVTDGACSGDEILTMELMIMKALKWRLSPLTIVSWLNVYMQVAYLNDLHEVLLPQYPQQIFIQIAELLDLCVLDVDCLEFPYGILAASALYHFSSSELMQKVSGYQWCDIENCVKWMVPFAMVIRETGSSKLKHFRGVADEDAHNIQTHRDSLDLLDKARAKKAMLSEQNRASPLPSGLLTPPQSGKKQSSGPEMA
Sequence of Cyclin E1 (Q96SW2 whole entry): as the sequence (Q96SW2 whole entry, the tested form may be a part) above
Sequence of Cyclin E1 (Q16531 whole entry partner): as the sequence (Q16531 whole entry partner, the tested form may be a part) above

The IC50 is the concentration needed to halve the response being measured. As usually defined, the DC50 is the concentration giving 50% degradation. A higher DC50 goes with degradation only at high concentration. A word on the Dmax: it is the greatest extent of degradation seen.

On to `O=C1CCC(N2Cc3ccc(COC(=O)Nc4ccc(Oc5ccc(F)cc5)cc4F)c(OC4CCOCC4)c3C2=O)C(=O)N1` (stereo not drawn) [Example 135, [2-(2,6-dioxopiperidin-3-yl)-4-(oxan-4-yloxy)-3-oxo-2,3-dihydro-1H-isoindol-5-yl]methyl N-[2-fluoro-4-(4-fluorophenoxy)phenyl]carbamate], for which, in the assay on Phospho-Rb (Ser807/811), half-maximal inhibition (IC50) required 27 nM and the Emax was determined as 148%. Further, at GSPT1, the DC50 is over 14000 nM and the Dmax was 5%. In addition, on Cyclin E1, half-maximal degradation (DC50) was put at 17 nM, the Dmax was 110% and the “Ratio of GSPT1 DC50/Cyclin E1 DC50” value is over 847.
For `O=C1CCC(N2Cc3ccc(COC(=O)Nc4ccc(Oc5cc(F)c(F)c(F)c5)cc4F)c(O[C@@H]4CCCOC4)c3C2=O)C(=O)N1` (stereo partly drawn) [Example 150, [2-(2,6-dioxopiperidin-3-yl)-4-[(3R)-oxan-3-yloxy]-3-oxo-2,3-dihydro-1H-isoindol-5-yl]methyl N-[2-fluoro-4-(3,4,5-trifluorophenoxy)phenyl]carbamate], in the assay on Phospho-Rb (Ser807/811), the IC50 turned out to be 96 nM and the Emax was found to be 137%. In addition, at GSPT1, the DC50 was over 14000 nM and the Dmax worked out at 0%. On Cyclin E1, the DC50 came out at 182 nM, the Dmax worked out at 100% and the “Ratio of GSPT1 DC50/Cyclin E1 DC50” value is recorded as over 77.
Take `COc1c(COC(=O)Nc2ccc(Oc3ccc(F)cc3)cc2)ccc2c1C(=O)N(C1CCC(=O)NC1=O)C2` (stereo not drawn) [Example 84, [2-(2,6-dioxopiperidin-3-yl)-4-methoxy-3-oxo-2,3-dihydro-1H-isoindol-5-yl]methyl N-[4-(4-fluorophenoxy)phenyl]carbamate]: in the assay on Phospho-Rb (Ser807/811), half-maximal inhibition (IC50) required 254 nM and the Emax was determined as 95%. Besides, on GSPT1, the DC50 was over 14000 nM and the Dmax came to 22%. At Cyclin E1, half-maximal degradation (DC50) was put at 94 nM, the Dmax turned out to be 108% and the “Ratio of GSPT1 DC50/Cyclin E1 DC50” value was over 149.
As for `CC(C)Oc1c(COC(=O)Nc2ccc(Oc3ccc(F)cc3)cc2)ccc2c1C(=O)N(C1CCC(=O)NC1=O)C2` (stereo not drawn) [Example 59, [2-(2,6-dioxopiperidin-3-yl)-3-oxo-4-(propan-2-yloxy)-2,3-dihydro-1H-isoindol-5-yl]methyl N-[4-(4-fluorophenoxy)phenyl]carbamate], in the assay with Phospho-Rb (Ser807/811), the IC50 is 175 nM and the Emax is 113%. Further, at GSPT1, the DC50 is over 14000 nM and the Dmax is 48%. Further, on Cyclin E1, half-maximal degradation (DC50) was put at 131 nM, the Dmax was determined as 104% and the “Ratio of GSPT1 DC50/Cyclin E1 DC50” value is reported as over 107.
Regarding `COc1c(COC(=O)Nc2ccc(Oc3ccccc3F)cc2)ccc2c1C(=O)N(C1CCC(=O)NC1=O)C2` (stereo not drawn) [Example 79, [2-(2,6-dioxopiperidin-3-yl)-4-methoxy-3-oxo-2,3-dihydro-1H-isoindol-5-yl]methyl N-[4-(2-fluorophenoxy)phenyl]carbamate], in the assay with Phospho-Rb (Ser807/811), half-maximal inhibition (IC50) was put at 128 nM and the Emax was 120%. At GSPT1, the DC50 is over 14000 nM and the Dmax came to 31%. Moreover, at Cyclin E1, the DC50 was found to be 375 nM, the Dmax turned out to be 112% and the “Ratio of GSPT1 DC50/Cyclin E1 DC50” value is on record as over 37.
In the case of `O=C1CCC(N2Cc3ccc(COC(=O)Nc4ccc(Oc5ccccc5F)cc4)c(Oc4ccccc4)c3C2=O)C(=O)N1` (stereo not drawn) [Example 65, [2-(2,6-dioxopiperidin-3-yl)-3-oxo-4-phenoxy-2,3-dihydro-1H-isoindol-5-yl]methyl N-[4-(2-fluorophenoxy)phenyl]carbamate], in the assay with Phospho-Rb (Ser807/811), the IC50 turned out to be 59 nM and the Emax worked out at 127%. Moreover, on GSPT1, the DC50 is over 14000 nM and the Dmax stood at 0%. On Cyclin E1, it took 164 nM to reach half-maximal degradation (DC50), the Dmax worked out at 101% and the “Ratio of GSPT1 DC50/Cyclin E1 DC50” value is on record as over 85.
In the case of `COc1cc(Oc2ccc(F)cc2OC)ccc1NC(=O)OCc1ccc2c(c1OC)C(=O)N(C1CCC(=O)NC1=O)C2` (stereo not drawn) [Example 50, [2-(2,6-dioxopiperidin-3-yl)-4-methoxy-3-oxo-2,3-dihydro-1H-isoindol-5-yl]methyl N-[4-(4-fluoro-2-methoxyphenoxy)-2-methoxyphenyl]carbamate], in the assay on Phospho-Rb (Ser807/811), the midpoint of inhibition, the IC50, lay at 2080 nM and the Emax came to 77%. Besides, at GSPT1, the DC50 was over 14000 nM and the Dmax is 25%. In addition, at Cyclin E1, the DC50 amounted to 463 nM, the Dmax amounted to 77% and the “Ratio of GSPT1 DC50/Cyclin E1 DC50” value is over 30.
In the case of `O=C1CCC(N2Cc3ccc(COC(=O)Nc4ccc(Oc5cccc(F)c5)cc4)c(O[C@@H]4CCCOC4)c3C2=O)C(=O)N1` (stereo partly drawn) [Example 143, [2-(2,6-dioxopiperidin-3-yl)-4-[(3R)-oxan-3-yloxy]-3-oxo-2,3-dihydro-1H-isoindol-5-yl]methyl N-[4-(3-fluorophenoxy)phenyl]carbamate], in the assay with Phospho-Rb (Ser807/811), half-maximal inhibition (IC50) was put at 66 nM and the Emax is 153%. Besides, at GSPT1, the DC50 is over 14000 nM and the Dmax came out at 8%. For the same molecule, on Cyclin E1, the DC50 came to 31 nM, the Dmax came out at 110% and the “Ratio of GSPT1 DC50/Cyclin E1 DC50” value is listed as over 445.
As to `CCOc1c(COC(=O)Nc2ccc(Oc3ccc(F)c(F)c3)cc2)ccc2c1C(=O)N(C1CCC(=O)NC1=O)C2` (stereo not drawn) [Example 53, [2-(2,6-dioxopiperidin-3-yl)-4-ethoxy-3-oxo-2,3-dihydro-1H-isoindol-5-yl]methyl N-[4-(3,4-difluorophenoxy)phenyl]carbamate], in the assay with Phospho-Rb (Ser807/811), 86 nM corresponded to half-maximal inhibition (IC50) and the Emax amounted to 99%. Moreover, on GSPT1, the 50% degradation concentration (DC50) was over 14000 nM and the Dmax is 37%. On Cyclin E1, the DC50 is 176 nM, the Dmax turned out to be 109% and the “Ratio of GSPT1 DC50/Cyclin E1 DC50” value is recorded as over 80.
Consider `COc1c(COC(=O)Nc2ccc(Oc3ccc4ccsc4c3)cc2)ccc2c1C(=O)N(C1CCC(=O)NC1=O)C2` (stereo not drawn) [Example 115, [2-(2,6-dioxopiperidin-3-yl)-4-methoxy-3-oxo-2,3-dihydro-1H-isoindol-5-yl]methyl N-[4-(1-benzothiophen-6-yloxy)phenyl]carbamate], for which, in the assay with Phospho-Rb (Ser807/811), the midpoint of inhibition, the IC50, lay at 247 nM and the Emax turned out to be 114%. On GSPT1, the DC50 came out at 10300 nM and the Dmax was 63%. Moreover, at Cyclin E1, the DC50 was 217 nM, the Dmax is 108% and the “Ratio of GSPT1 DC50/Cyclin E1 DC50” value is 48.
Regarding `O=C1CCC(N2Cc3ccc(COC(=O)Nc4ccc(Oc5ccccc5Cl)cc4)c(OC4CCC4)c3C2=O)C(=O)N1` (stereo not drawn) [Example 127, [4-cyclobutoxy-2-(2,6-dioxopiperidin-3-yl)-3-oxo-2,3-dihydro-1H-isoindol-5-yl]methyl N-[4-(2-chlorophenoxy)phenyl]carbamate], in the assay on Phospho-Rb (Ser807/811), 48 nM corresponded to half-maximal inhibition (IC50) and the Emax worked out at 121%. Also, on GSPT1, the DC50 was over 14000 nM and the Dmax stood at 8%. Besides, on Cyclin E1, the DC50 came to 126 nM, the Dmax is 105% and the “Ratio of GSPT1 DC50/Cyclin E1 DC50” value is over 111.
Take `COc1c(COC(=O)Nc2ccc(Cc3ccc(F)c(F)c3)cc2)ccc2c1C(=O)N(C1CCC(=O)NC1=O)C2` (stereo not drawn) [Example 17, [2-(2,6-dioxopiperidin-3-yl)-4-methoxy-3-oxo-2,3-dihydro-1H-isoindol-5-yl]methyl N-{4-[(3,4-difluorophenyl)methyl]phenyl}carbamate]: in the assay on Phospho-Rb (Ser807/811), inhibition was half-maximal at 225 nM (IC50) and the Emax was 114%. Besides, at GSPT1, the DC50 is over 14000 nM and the Dmax stood at 15%. In addition, on Cyclin E1, the DC50 stood at 447 nM, the Dmax is 99% and the “Ratio of GSPT1 DC50/Cyclin E1 DC50” value is reported as over 31.
Regarding `COc1cc(Oc2cc(F)c(F)c(F)c2)ccc1NC(=O)OCc1ccc2c(c1OC)C(=O)N(C1CCC(=O)NC1=O)C2` (stereo not drawn) [Example 72, [2-(2,6-dioxopiperidin-3-yl)-4-methoxy-3-oxo-2,3-dihydro-1H-isoindol-5-yl]methyl N-[2-methoxy-4-(3,4,5-trifluorophenoxy)phenyl]carbamate], in the assay with Phospho-Rb (Ser807/811), the 50% inhibitory concentration (IC50) worked out at 364 nM and the Emax was 120%. For the same molecule, at GSPT1, the half-maximal degradation concentration (DC50) is over 14000 nM and the Dmax came out at 5%. On Cyclin E1, the 50% degradation concentration (DC50) turned out to be 394 nM, the Dmax was determined as 103% and the “Ratio of GSPT1 DC50/Cyclin E1 DC50” value is reported as over 36.
Consider `COc1c(COC(=O)Nc2ccc(Oc3ccc(Cl)c(F)c3)cc2)ccc2c1C(=O)N(C1CCC(=O)NC1=O)C2` (stereo not drawn) [Example 71, [2-(2,6-dioxopiperidin-3-yl)-4-methoxy-3-oxo-2,3-dihydro-1H-isoindol-5-yl]methyl N-[4-(4-chloro-3-fluorophenoxy)phenyl]carbamate], for which, in the assay with Phospho-Rb (Ser807/811), half-maximal inhibition (IC50) required 234 nM and the Emax came to 97%. On GSPT1, the DC50 is over 14000 nM and the Dmax is 27%. On Cyclin E1, half-maximal degradation (DC50) was put at 241 nM, the Dmax came to 105% and the “Ratio of GSPT1 DC50/Cyclin E1 DC50” value is reported as over 58.
As to `CC(C)Oc1c(COC(=O)Nc2ccc(Oc3cccc(F)c3F)cc2)ccc2c1C(=O)N(C1CCC(=O)NC1=O)C2` (stereo not drawn) [Example 120, [2-(2,6-dioxopiperidin-3-yl)-3-oxo-4-(propan-2-yloxy)-2,3-dihydro-1H-isoindol-5-yl]methyl N-[4-(2,3-difluorophenoxy)phenyl]carbamate], in the assay with Phospho-Rb (Ser807/811), the IC50 amounted to 55 nM and the Emax worked out at 121%. On GSPT1, the DC50 was over 14000 nM and the Dmax came out at 6%. Also, at Cyclin E1, the DC50 was found to be 148 nM, the Dmax worked out at 108% and the “Ratio of GSPT1 DC50/Cyclin E1 DC50” value was over 95.
